Measurements taken from ChEMBL document CHEMBL1144074, “Glycoside primers of Psittacanthus cucullaris” (J Nat Prod, 1999).
The source made the active and inactive calls. The rule behind the calls is not given here.

Test system: CHO
Assay: Stimulation of glycosaminoglycan chains formation in xylosyltransferase-deficient CHO pgsA-745 cells by liquid scintillation spectrophotometry
Assay type: functional, cell-based
Details: Cricetulus griseus

Row | Structure (SMILES) | Activity
1 | COc1cc2c(=O)oc3c(OC)c(O[C@@H]4OC[C@@H](O)[C@H](O)[C@H]4O)cc4c(=O)oc(c1OC)c2c34 | Active
2 | COc1c(O)cc2c(=O)oc3c(OC)c(O[C@@H]4OC[C@@H](O)[C@H](O)[C@H]4O)cc4c(=O)oc1c2c34 | Active
